Data on 3 compounds can be found in patent publication US10059655B2, “Lipids and lipid compositions for the delivery of active agents” (priority 2013, dated 2018).

Holding throughout (format): physicochemical
Data set [1] is described as follows: Particle size of the lipid nanoparticle (Z-average, dynamic light scattering, Malvern Zetasizer). Particulars: for Size 1st IM / Size 2nd IM: RSV-F replicon RNA LNP, DLS; for Size 1st IM: 1st immunization; for Size 2nd IM: 2nd immunization. From the text:
The lipid nanoparticles have a size of about 1 to about 2,500 nm, about 10 to about 1,500 nm, about 20 to about 1,000 nm, in a sub-embodiment about 50 to about 600 nm, in a sub-embodiment about 50 to about 400 nm, in a sub-embodiment about 50 to about 250 nm, and in a sub-embodiment about 50 to about 150 nm. Unless indicated otherwise, all sizes referred to herein are the average sizes (diameters) of the fully formed nanoparticle, as measured by dynamic light scattering on a Malvern Zetasizer. The nanoparticle sample is diluted in phosphate buffered saline (PBS) so that the count rate is approximately 200-400 kcts. The data is presented as a weighted average of the intensity measure.
Unless indicated otherwise, all particle size measurements referred to in Table 3 are the Z-average particle size of the fully formed nanoparticle, as measured by dynamic light scattering on a Malvern Zetasizer. The nanoparticle sample was diluted in phosphate buffered saline (PBS) so that the count rate is approximately 200-400 kcts.
(§1) % entrapment (% E), Concentration of RNA (Conc), particle size measured by DLS, and polydispersity reported by DLS of LNPs prepared with different cationic lipids
For orientation: Replicon systems follow genome replication, usually without infectious particles.

Data set [2] in a line: Polydispersity index (PDI) by dynamic light scattering. Particulars: for PDI 1st IM / PDI 2nd IM: RSV-F replicon RNA LNP, DLS; for PDI 1st IM: 1st immunization; for PDI 2nd IM: 2nd immunization. As for the experimental part:
Unless indicated otherwise, all PDIs referred to herein are the PDI of the fully formed nanoparticle, as measured by dynamic light scattering on a Malvern Zetasizer. The nanoparticle sample was diluted in phosphate buffered saline (PBS) so that the count rate was approximately 200-400 kcts. The data is presented in Table 3 as a weighted average of the intensity measure.
as §1

Data set [3] in a line: Measurement of plasmid DNA encapsulation in lipid nanoparticles (Quant-iT Ribogreen). How it is done: All equipment and disposable supplies are certified free of RNase activity by the manufacturer or rendered RNase free by use of the RNaseZap reagent (LifeTechnologies). Plasmid is encapsulated at a cationic lipid amine to DNA phosphate (N:P) molar ratio of 4:1. Lipids (cationic lipid, DSPC, cholesterol and lipidated PEG) are dissolved in ethanol. The molar ratios are 40:10:38:2, respectively. The mixture is sonicated briefly, then gently agitated for 5 minutes and then maintained at 37° C. until use. Plasmid is exchanged into citrate buffer pH 6.0 by use of Amicon Ultra-15 centrifugal concentrators, and the final concentration is adjusted to 0.053 mg/ml and held at 37° C. until use. An equal volume of lipids in ethanol, plasmid in citrate buffer, and citrate buffer alone are drawn into disposable syringes. Tubing leading from syringes containing lipids and DNA are attached to the T junction, and tubing leading from the syringe containing citrate buffer alone is paired with the tubing exiting the T-junction over a collection vessel containing a stir bar on an active stir plate. Syringes are placed in a syringe pump set to expel contents at a flow rate of 1 ml per minute. The pump is activated, and the collected DNA in lipid nanoparticles is transferred to SnakeSkin dialysis tubing (10,000 MWCO, Thermo Scientific). Material is dialyzed against RNAse- and pyrogen-free 1× phosphate buffered saline overnight at 4° C.
Percent encapsulation of plasmid DNA in lipid nanoparticles is determined using the Quant-iT Ribogreen RNA Assay kit (Life Technologies). The LNP-DNA suspension is assayed in buffer (DNA outside the particle), and buffer plus Triton X-100 detergent (total DNA). The difference calculated is the DNA inside the particle. Prepare a 1000 ng/mL stock using unpackaged plasmid and use this to generate a standard curve (0 ng/ml, 15.63-1000 ng/ml) in TE and TE+0.75% Triton X-100. Prepare LNP-plasmid samples in TE buffer and TE buffer+0.75% Triton X-100 with appropriate dilution so that reading is in the range of standard curve (25 fold). In a 384-well plate (Costar non-treated #3573) add 0.04 ml of standard (in duplicate) or sample (in triplicate) per well. Dilute Ribogreen reagent 240-fold in TE buffer and add 0.06 ml per well. Mix contents of wells and measure fluorescence (excitation=480 nm, emission=520 nm). Subtract background values (no DNA) from standard and test sample values and determine the concentrations of DNA in the samples using the standard curves. Determine the percent encapsulation of the sample by dividing the difference in concentrations between sample+triton and sample in buffer alone by the sample+triton concentration.

Turning to `CCCCC/C=C\C/C=C\CCCCCCCC(=O)OCC(COC(=O)CCC(OCCCCCCCC)OCCCCCCCC)COC(=O)OCCCN(CC)CC` (stereo not drawn) [Example 13, (9Z,12Z)-3-((4,4-bis(octyloxy)butanoyl)oxy)-2-((((3-(diethylamino)propoxy)carbonyl)oxy)methyl)propyl octadeca-9,12-dienoate], the Size in data set [1] (FLuc mRNA) was 121.9 nm; in data set [1] (FVII siRNA), 101.5 nm; in data set [1] (Gluc mRNA), 90.8 nm; in data set [1] (hFIX mRNA), 122.4 nm; in data set [1] (hLep plasmid), 121.5 nm; in data set [1] (hLeptin mRNA), 127.6 nm. Further, the figures for the Size in data set [1] (mEPO mRNA) and in data set [1] (pDNA) were 113.7 nm and 95.12 nm, respectively. Also, the PDI in data set [2] (FLuc mRNA) is reported as 0.140; in data set [2] (FVII siRNA), 0.037; in data set [2] (Gluc mRNA) it was 0.099; in data set [2] (hFIX mRNA), 0.154; in data set [2] (hLep plasmid) it was 0.158; in data set [2] (hLeptin mRNA) it was 0.093. Moreover, the PDI stood at 0.129 in data set [2] (mEPO mRNA) and 0.160 in data set [2] (pDNA). The results for the “% Encap.” value in data set [3] (hLep plasmid) and in data set [3] (pDNA) were 95.9% and 98.2%, respectively.
For the compound `CCCCC/C=C\C/C=C\CCCCCCCC(=O)OCC(COC(=O)CCCCCCC/C=C\C/C=C\CCCCC)COC(=O)C1(C)CCN(C)C1` (stereo not drawn) [Example 1, (9Z,9′Z,12Z,12′Z)-2-(((1,3-dimethylpyrrolidine-3-carbonyl)oxy)methyl)propane-1,3-diyl bis(octadeca-9,12-dienoate)], the Size in data set [1] (FLuc mRNA) is 119.0 nm; in data set [1] (FVII siRNA), 102.3 nm; in data set [1] (Gluc mRNA), 95.7 nm; in data set [1] (hFIX mRNA) it was 126.9 nm; in data set [1] (hLep plasmid), 105.1 nm; in data set [1] (hLeptin mRNA), 100.0 nm. Further, the Size turned out to be 107.2 nm in data set [1] (mEPO mRNA) and 100.7 nm in data set [1] (pDNA). Besides, the “Size 1st IM” value in data set [1] came out at 139.1 nm. The “Size 2nd IM” value in data set [1] is listed as 133.5 nm. For the same compound, the PDI in data set [2] (FLuc mRNA) was determined as 0.152; in data set [2] (FVII siRNA) it was 0.049; in data set [2] (Gluc mRNA), 0.136; in data set [2] (hFIX mRNA), 0.090; in data set [2] (hLep plasmid), 0.182; in data set [2] (hLeptin mRNA), 0.105. The PDI in data set [2] (mEPO mRNA) was 0.145; in data set [2] (pDNA), 0.100. For the same compound, the “PDI 1st IM” value in data set [2] is on record as 0.122. Besides, in data set [2], the “PDI 2nd IM” value was 0.11. The “% Encap.” value is on record as 93.0% in data set [3] (hLep plasmid) and 94.7% in data set [3] (pDNA).
As to `CCCCC/C=C\C/C=C\CCCCCCCC(=O)OCC(COC(=O)CCC(OCCCCCCCC)OCCCCCCCC)COC(=O)OCC1CCCN(CC)C1` (stereo not drawn) [Example 15, (9Z,12Z)-3-((4,4-bis(octyloxy)butanoyl)oxy)-2-(((((1-ethylpiperidin-3-yl)methoxy)carbonyl)oxy)methyl)propyl octadeca-9,12-dienoate], the Size in data set [1] (FLuc mRNA) stood at 100.7 nm; in data set [1] (Gluc mRNA) it was 84.7 nm; in data set [1] (hFIX mRNA), 96.8 nm; in data set [1] (hLep plasmid) it was 94.5 nm; in data set [1] (hLeptin mRNA), 119.8 nm; in data set [1] (mEPO mRNA), 90.1 nm. The Size in data set [1] (pDNA) is 86.9 nm. Besides, the “Size 1st IM” value in data set [1] was 144.7 nm. Further, the “Size 2nd IM” value in data set [1] is given as 139.4 nm. For the same compound, the PDI in data set [2] (FLuc mRNA) worked out at 0.132; in data set [2] (Gluc mRNA), 0.133; in data set [2] (hFIX mRNA), 0.182; in data set [2] (hLep plasmid), 0.149; in data set [2] (hLeptin mRNA) it was 0.125; in data set [2] (mEPO mRNA) it was 0.125. For the same compound, in data set [2] (pDNA), the PDI came to 0.110. The “PDI 1st IM” value in data set [2] came to 0.121. Besides, the “PDI 2nd IM” value in data set [2] came out at 0.097. For the same compound, the “% Encap.” value was 93.6% in data set [3] (hLep plasmid) and 93.2% in data set [3] (pDNA).
